# Data published in patent US12398120B2, “Substituted hydantoinamides as ADAMTS7 antagonists” (BAYER AKTIENGESELLSCHAFT, priority 2019, dated 2025).
# Target: ADAMTS4 (Homo sapiens (Human), UniProt O75173)
# Assay: Selectivity assay for ADAMTS-7 modulators: ADAMTS4 (FRET substrate)
# Assay type: biochemical
# Conditions: ADAMTS4 (R&D 4307-AD) 50 nM, substrate Dabcyl-EEVKAKVQPY-Glu(Edans)-NH2 1 μM, 120 min, 32° C.
# How it was run: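 Activity read as rising fluorescence after a FRET substrate is cleaved by human ADAMTS4, with reactions started by substrate addition to wells holding compound or DMSO. Percent inhibition plotted against concentration gave IC50.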
# ADAMTS4, sequence (O75173 213-685): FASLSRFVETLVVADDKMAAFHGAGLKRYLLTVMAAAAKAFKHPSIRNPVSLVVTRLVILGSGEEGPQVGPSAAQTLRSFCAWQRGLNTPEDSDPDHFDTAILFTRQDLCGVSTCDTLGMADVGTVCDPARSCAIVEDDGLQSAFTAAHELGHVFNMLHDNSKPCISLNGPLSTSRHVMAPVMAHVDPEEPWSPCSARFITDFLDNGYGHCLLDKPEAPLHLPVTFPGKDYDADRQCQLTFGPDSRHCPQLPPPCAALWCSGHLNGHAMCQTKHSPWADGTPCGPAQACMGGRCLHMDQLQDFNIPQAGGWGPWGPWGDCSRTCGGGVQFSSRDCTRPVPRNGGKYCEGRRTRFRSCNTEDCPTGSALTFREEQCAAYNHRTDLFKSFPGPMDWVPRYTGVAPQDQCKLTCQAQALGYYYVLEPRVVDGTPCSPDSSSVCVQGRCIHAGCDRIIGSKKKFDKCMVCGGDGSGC
row,IC50 [µM],Structure (SMILES)
1,0.83,"Cn1ccnc1C1(CNC(=O)c2cc(F)ccc2-c2ccc(Cl)cc2)NC(=O)NC1=O (single isomer, unassigned; ent-4) [Example 160, Ent-4′-Chloro-4-Fluoro-N-{[4-(1-Methyl-1H-Imidazol-2-Yl)-2,5-Dioxoimidazolidin-4-Yl]Methyl}[Biphenyl]-2-Carboxamide]"
2,6.9,"Cc1nn(C)cc1C1(CNC(=O)c2ccccc2-c2ccc(C(F)(F)F)cc2)NC(=O)NC1=O (stereo not drawn) [Example 87, Ent-N-{[4-(1,3-Dimethyl-1H-Pyrazol-4-Yl)-2,5-Dioxoimidazolidin-4-Yl]Methyl}-4′-(Trifluoromethyl)[Biphenyl]-2-Carboxamide]"
3,1.3,"Cn1ccnc1C1(CNC(=O)c2cccc(F)c2-c2ccc(C(F)(F)F)cc2)NC(=O)NC1=O (single isomer, unassigned; ent-6) [Example 163, Ent-6-Fluoro-N-{[4-(1-Methyl-1H-Imidazol-2-Yl)-2,5-Dioxoimidazolidin-4-Yl]Methyl}-4′-(Trifluoromethyl)[Biphenyl]-2-Carboxamide]"
4,23,"Cn1ccc(C2(CNC(=O)c3ccc(F)c(F)c3-c3ccc(C(F)(F)F)cc3)NC(=O)NC2=O)n1 (racemic) [Example 307, Rac-5,6-Difluoro-N-{[4-(1-Methyl-1H-Pyrazol-3-Yl)-2,5-Dioxoimidazolidin-4-Yl]Methyl}-4′-(Trifluoromethyl)[Biphenyl]-2-Carboxamide]"
5,2.2,"O=C1NC(=O)[C@](CNC(=O)c2ccccc2-c2ccc(C3CCC3)cc2)(C2CC2)N1 [Example 112, 4′-Cyclobutyl-N-{[(4R)-4-Cyclopropyl-2,5-Dioxoimidazolidin-4-Yl]Methyl}[Biphenyl]-2-Carboxamide]"
6,> 50,"O=C1NC(=O)C(CNC(=O)c2ccccc2-c2ccc(C(F)(F)F)cc2)(C2CCCC2)N1 (racemic) [Example 48, Rac-N-[(4-Cyclopentyl-2,5-Dioxoimidazolidin-4-Yl)Methyl]-4′-(Trifluoromethyl)[Biphenyl]-2-Carboxamide]"
7,1.3,"O=C1NC(=O)C(CNC(=O)c2ccc(F)c(F)c2-c2ccc(C(F)(F)F)cc2)(c2ccnn2-c2ccccc2)N1 (racemic) [Example 315, Rac-N-{[2,5-Dioxo-4-(1-Phenyl-1H-Pyrazol-5-Yl)Imidazolidin-4-Yl]Methyl}-5,6-Difluoro-4′-(Trifluoromethyl)[Biphenyl]-2-Carboxamide]"
8,14,"Cc1cnoc1C1(CNC(=O)c2ccccc2-c2ccc(C(F)(F)F)nc2)NC(=O)NC1=O (stereo not drawn) [Example 78, Ent-N-{[4-(4-Methyl-1,2-Oxazol-5-Yl)-2,5-Dioxoimidazolidin-4-Yl]Methyl}-2-[6-(Trifluoromethyl)Pyridin-3-Yl]Benzamide]"
9,9.1,"O=C1NC(=O)C(CNC(=O)c2cc(F)ccc2-c2ccc(C(F)(F)F)cc2)(c2ncsc2C(F)(F)F)N1 (racemic) [Example 265, Rac-N-({2,5-Dioxo-4-[5-(Trifluoromethyl)-1,3-Thiazol-4-Yl]Imidazolidin-4-Yl}Methyl)-4-Fluoro-4′-(Trifluoromethyl)[Biphenyl]-2-Carboxamide]"
10,4.8,"O=C1NC(=O)C(CNC(=O)c2ccccc2-c2ccc(C(F)(F)F)cc2)(c2ccnn2C2CC2)N1 (stereo not drawn) [Example 46, Ent-N-{[4-(1-Cyclopropyl-1H-Pyrazol-5-Yl)-2,5-Dioxoimidazolidin-4-Yl]Methyl}-4′-(Trifluoromethyl)[Biphenyl]-2-Carboxamide]"
11,> 50,"CC1CCC1C1(CNC(=O)c2ccccc2-c2ccc(C(F)(F)F)cc2)NC(=O)NC1=O (stereo not shown) [Example 13, Diamix-N-{[4-(2-Methylcyclobutyl)-2,5-Dioxoimidazolidin-4-Yl]Methyl}-4′-(Trifluoromethyl)[Biphenyl]-2-Carboxamide]"
12,12,"Cn1nccc1C1(CNC(=O)c2ccc(F)cc2-c2ccc(Cl)cc2)NC(=O)NC1=O (racemic) [Example 179, Rac-4′-Chloro-5-Fluoro-N-{[4-(1-Methyl-1H-Pyrazol-5-Yl)-2,5-Dioxoimidazolidin-4-Yl]Methyl}[Biphenyl]-2-Carboxamide]"
13,12,"O=C1NC(=O)[C@](CNC(=O)c2ccc(F)cc2-c2ccc(C(F)(F)F)cc2)(C2CC2)N1 [Example 116, N-{[(4R)-4-Cyclopropyl-2,5-Dioxoimidazolidin-4-Yl]Methyl}-5-Fluoro-4′-(Trifluoromethyl)[Biphenyl]-2-Carboxamide]"
14,15,"Cc1ccc(-c2ccccc2C(=O)NCC2(C3CCC3)NC(=O)NC2=O)cc1 (stereo not drawn) [Example 236, Ent-N-[(4-Cyclobutyl-2,5-Dioxoimidazolidin-4-Yl)Methyl]-4′-Methyl[Biphenyl]-2-Carboxamide]"
15,4.03,"Cn1nccc1C1(CNC(=O)c2ccccc2-c2ccc(Cl)cc2)NC(=O)NC1=O (single isomer, unassigned; ent-4) [Example 182, Ent-4′-Chloro-N-{[4-(1-Methyl-1H-Pyrazol-5-Yl)-2,5-Dioxoimidazolidin-4-Yl]Methyl}[Biphenyl]-2-Carboxamide]"
16,19,"O=C1NC(=O)[C@](CNC(=O)c2ccccc2-c2ccc(C(F)(F)F)nc2)(C2CC2)N1 [Example 224, N-{[(4R)-4-Cyclopropyl-2,5-Dioxoimidazolidin-4-Yl]Methyl}-2-[6-(Trifluoromethyl)Pyridin-3-Yl]Benzamide]"

row,IC50 [µM],Structure (SMILES)
1,> 50,"CC1CCC1C1(CNC(=O)c2ccccc2-c2ccc(C(F)(F)F)cc2)NC(=O)NC1=O (stereo not drawn) [Example 26, Ent-N-{[4-(2-Methylcyclobutyl)-2,5-Dioxoimidazolidin-4-Yl]Methyl}-4′-(Trifluoromethyl)[Biphenyl]-2-Carboxamide]"
2,1.4,"Cc1ccc(-c2c(C)cccc2C(=O)NCC2(c3nccn3C)NC(=O)NC2=O)cc1 (single isomer, unassigned; ent-4) [Example 134, Ent-4′,6-Dimethyl-N-{[4-(1-Methyl-1H-Imidazol-2-Yl)-2,5-Dioxoimidazoidin-4-Yl]Methyl}[1,1′-Biphenyl]-2-Carboxamide]"
3,15,"Cc1nn(C)cc1C1(CNC(=O)c2ccccc2-c2ccc(C(F)(F)F)cc2)NC(=O)NC1=O (racemic) [Example 60, Rac-N-{[4-(1,3-Dimethyl-1H-Pyrazol-4-Yl)-2,5-Dioxoimidazolidin-4-Yl]Methyl}-4′-(Trifluoromethyl)[Biphenyl]-2-Carboxamide]"
4,0.705,"Cc1ccc(-c2ccc(F)cc2C(=O)NCC2(c3nccn3C)NC(=O)NC2=O)cc1 (single isomer, unassigned; ent-4) [Example 152, Ent-4-Fluoro-4′-Methyl-N-{[4-(1-Methyl-1H-Imidazol-2-Yl)-2,5-Dioxoimidazolidin-4-Yl]Methyl}[Biphenyl]-2-Carboxamide]"
5,> 50,"O=C1NC(=O)C(CNC(=O)c2ccccc2-c2ccc(Cl)cc2)(C2CC(F)(F)C2)N1 (racemic) [Example 246, Rac-4′-Chloro-N-{[4-(3,3-Difluorocyclobutyl)-2,5-Dioxoimidazolidin-4-Yl]Methyl}[Biphenyl]-2-Carboxamide]"
6,9.8,"Cc1ncn(C)c1C1(CNC(=O)c2ccc(F)cc2-c2ccc(C(F)(F)F)cc2)NC(=O)NC1=O (racemic) [Example 286, Rac-N-{[4-(1,4-Dimethyl-1H-Imidazol-5-Yl)-2,5-Dioxoimidazolidin-4-Yl]Methyl}-5-Fluoro-4′-(Trifluoromethyl)[Biphenyl]-2-Carboxamide]"
7,20,"Cc1ccc(-c2cccc(F)c2C(=O)NC[C@@]2(C3CC3)NC(=O)NC2=O)cc1 [Example 229, N-{[(4R)-4-Cyclopropyl-2,5-Dioxoimidazolidin-4-Yl]Methyl}-3-Fluoro-4′-Methyl[1,1′-Biphenyl]-2-Carboxamide]"
8,3.05,"Cn1ccnc1C1(CNC(=O)c2ccccc2-c2ccc(C(F)(F)F)nc2)NC(=O)NC1=O (stereo not drawn) [Example 158, Ent-N-{[4-(1-Methyl-1H-Imidazol-2-Yl)-2,5-Dioxoimidazolidin-4-Yl]Methyl}-2-[6-(Trifluoromethyl)Pyridin-3-Yl]Benzamide]"
9,31,"O=C1NC(=O)[C@](CNC(=O)c2ccncc2-c2ccc(Cl)cc2)(C2CC2)N1 [Example 56, 3-(4-Chlorophenyl)-N-{[(4R)-4-Cyclopropyl-2,5-Dioxoimidazolidin-4-Yl]Methyl}Isonicotinamide]"
10,46,"CC1(CNC(=O)c2ccccc2-c2ccc(C(F)(F)F)cc2)NC(=O)NC1=O (stereo not drawn) [Example 96, Ent-N-[(4-Methyl-2,5-Dioxoimidazolidin-4-Yl)Methyl]-4′-(Trifluoromethyl)[Biphenyl]-2-Carboxamide]"
11,5.2,"Cc1c(C2(CNC(=O)c3ccc(Cl)cc3-c3ccc(C(F)(F)F)cc3)NC(=O)NC2=O)cnn1C (racemic) [Example 33, Rac-5-Chloro-N-{[4-(1,5-Dimethyl-1H-Pyrazol-4-Yl)-2,5-Dioxoimidazolidin-4-Yl]Methyl}-4′-(Trifluoromethyl)[Biphenyl]-2-Carboxamide]"
12,3.75,"Cn1ccnc1C1(CNC(=O)c2c(F)cccc2-c2ccc(C(F)(F)F)cc2)NC(=O)NC1=O (single isomer, unassigned; ent-3) [Example 159, Ent-3-Fluoro-N-{[4-(1-Methyl-1H-Imidazol-2-Yl)-2,5-Dioxoimidazolidin-4-Yl]Methyl}-4′-(Trifluoromethyl)[Biphenyl]-2-Carboxamide]"
13,21,"Cn1nc2ccccc2c1C1(CNC(=O)c2ccc(F)cc2-c2ccc(C(F)(F)F)cc2)NC(=O)NC1=O (racemic) [Example 288, Rac-5-Fluoro-N-{[4-(2-Methyl-2H-Indazol-3-Yl)-2,5-Dioxoimidazolidin-4-Yl]Methyl}-4′-(Trifluoromethyl)[Biphenyl]-2-Carboxamide]"
14,> 50,"O=C1NC(=O)[C@](CNC(=O)c2cccnc2-c2ccc(C(F)(F)F)cc2)(C2CC2)N1 [Example 82, N-{[(4R)-4-Cyclopropyl-2,5-Dioxoimidazolidin-4-Yl]Methyl}-2-[4-(Trifluoromethyl)Phenyl]Pyridine-3-Carboxamide]"
15,11,"Cn1nccc1C1(CNC(=O)c2ccccc2-c2ccc(Cl)c(Cl)c2)NC(=O)NC1=O (single isomer, unassigned; ent-3) [Example 311, Ent-3′,4′-Dichloro-N-{[4-(1-Methyl-1H-Pyrazol-5-Yl)-2,5-Dioxoimidazolidin-4-Yl]Methyl}[Biphenyl]-2-Carboxamide]"
